Counter-ions that a name gives are not always drawn. Like-named read-outs stand apart in the source and are kept apart here.

By IC50 is commonly meant the point on the concentration scale where inhibition reaches its midpoint.

The target in test [1] is Bcl-2 protein (histag-Bcl-2, UniProtKB P10415) (Homo sapiens (Human), UniProt P10415). The experiment in a line: Inhibition of Bcl-2 by the fluorescence polarisation technique. It counts as binding. The following applies: incubation for 2 hours, read-out: IC50 (nM) Bcl-2 FP. The protocol: The fluorescence polarisation tests were carried out on microplates (384 wells). The Bcl-2 protein, labelled (histag-Bcl-2 such that Bcl-2 corresponds to the UniProtKB® primary accession number: P10415), at a final concentration of 2.50×10^−8 M, is mixed with a fluorescent peptide (Fluorescein-[…]), at a final concentration of 1.00×10^−8 M in a buffer solution (Hepes 10 mM, NaCl 150 mM, Tween20 0.05%, pH 7.4), in the presence or absence of increasing concentrations of test compounds. After incubation for 2 hours, the fluorescence polarisation is measured.
In general terms: Fluorescence polarisation rises when a labelled molecule tumbles more slowly, as on binding a larger partner.

The test system of test [2] is RS4;11 leukaemia tumour line. Briefly: In vitro cytotoxicity (Microculture Tetrazolium Assay). The class given is cell-based. The note with it: RS4;11 cells, exposed for 48 hours, cell viability, read-out: IC50 (nM) MTT RS4;11. The protocol: The cytotoxicity studies were carried out on the RS4;11 leukaemia tumour line.
The cells are distributed onto microplates and exposed to the test compounds for 48 hours.
The cell viability is then quantified by a colorimetric assay, the Microculture Tetrazolium Assay (Cancer Res., 1987, 47, 939-942).

Chain of Bcl-2 protein (P10415 whole entry): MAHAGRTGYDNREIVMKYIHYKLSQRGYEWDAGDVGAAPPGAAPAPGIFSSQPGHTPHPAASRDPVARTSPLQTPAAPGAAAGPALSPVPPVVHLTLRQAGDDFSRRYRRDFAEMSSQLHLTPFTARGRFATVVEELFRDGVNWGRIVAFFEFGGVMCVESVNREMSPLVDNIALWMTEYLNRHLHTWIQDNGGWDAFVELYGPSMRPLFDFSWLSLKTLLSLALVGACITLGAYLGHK

In the case of `CN1CCN(C[C@@H]2Cc3ccccc3CN2C(=O)c2ccc(Cl)cc2-c2cc(C(=O)N(c3ccc(O)cc3)c3ccc4c(ccn4C)c3)cn2C)CC1` [Example 5, 5-(5-Chloro-2-{[(3S)-3-[(4-methylpiperazin-1-yl)methyl]-3,4-dihydroisoquinolin-2(1H)-yl]carbonyl}phenyl)-N-(4-hydroxyphenyl)-1-methyl-N-(1-methyl-1H-indol-5-yl)-1H-pyrrole-3-carboxamide hydrochloride], the IC50 in test [1] is 21.2 nM; in test [2] (Homo sapiens, RS4-11, 48 h), 44.8 nM.
`CCn1cc(C(=O)N(c2ccc(O)cc2)c2ccc3c(ccn3C)c2)cc1-c1cc(Cl)ccc1C(=O)N1Cc2ccccc2C[C@H]1CN1CCN(C)CC1` [Example 6, 5-(5-Chloro-2-{[(3S)-3-[(4-methylpiperazin-1-yl)methyl]-3,4-dihydroisoquinolin-2(1H)-yl]carbonyl}phenyl)-1-ethyl-N-(4-hydroxyphenyl)-N-(1-methyl-1H-indol-5-yl)-1H-pyrrole-3-carboxamide]: the IC50 in test [1] amounted to 25.2 nM; in test [2] (Homo sapiens, RS4-11, 48 h), 69 nM.
For `CN1CCN(C[C@@H]2Cc3ccccc3CN2C(=O)c2ccc(Cl)cc2-c2cc(C(=O)N(c3ccc(O)cc3)c3ccc4c(ccn4C)c3)cn2C2CC2)CC1` [Example 7, 5-(5-Chloro-2-{[(3S)-3-[(4-methylpiperazin-1-yl)methyl]-3,4-dihydroisoquinolin-2(1H)-yl]carbonyl}phenyl)-1-cyclopropyl-N-(4-hydroxyphenyl)-N-(1-methyl-1H-indol-5-yl)-1H-pyrrole-3-carboxamide], the IC50 in test [1] was determined as 25.6 nM; in test [2] (Homo sapiens, RS4-11, 48 h) it was 90.6 nM.
In the same order, the values of `CN1CCN(C[C@@H]2Cc3ccccc3CN2C(=O)c2cc3c(cc2-c2cc(C(=O)N(c4ccc(O)cc4)c4ccc5c(ccn5C)c4)cn2C)OCO3)CC1` [Example 9, N-(4-Hydroxyphenyl)-1-methyl-N-(1-methyl-1H-indol-5-yl)-5-(6-{[(3S)-3-[(4-methylpiperazin-1-yl)methyl]-3,4-dihydroisoquinolin-2(1H)-yl]carbonyl}-1,3-benzodioxol-5-yl)-1H-pyrrole-3-carboxamide hydrochloride] are 22.4 nM and 87.5 nM.
For `Cc1c(C(=O)N(c2ccccc2)c2ccc(O)cc2)cc(-c2cc(F)ccc2C(=O)N2Cc3ccccc3C[C@H]2CN2CCOCC2)n1C` [Example 10, 5-(5-Fluoro-2-{[(3S)-3-(morpholin-4-ylmethyl)-3,4-dihydroisoquinolin-2(1H)-yl]carbonyl}phenyl)-N-(4-hydroxyphenyl)-1,2-dimethyl-N-phenyl-1H-pyrrole-3-carboxamide hydrochloride], the IC50 stood at 16.2 nM in test [1] and 205 nM in test [2] (Homo sapiens, RS4-11, 48 h).
In the same order, the values of `Cc1c(C(=O)N(c2ccccc2)c2ccc(O)cc2)cc(-c2cc(F)ccc2C(=O)N2Cc3ccccc3C[C@H]2CN2CCOCC2)n1CCCO` [Example 11, 5-(5-Fluoro-2-{[(3S)-3-(morpholin-4-ylmethyl)-3,4-dihydroisoquinolin-2(1H)-yl]carbonyl}phenyl)-N-(4-hydroxyphenyl)-1-(3-hydroxypropyl)-2-methyl-N-phenyl-1H-pyrrole-3-carboxamide hydrochloride] are 14.2 nM and 202 nM.
In the same order, the values of `Cc1c(C(=O)N(c2ccc(O)cc2)c2ccc3c(cnn3C)c2)cc(-c2cc(F)ccc2C(=O)N2Cc3ccccc3C[C@H]2CN2CCOCC2)n1C` [Example 12, 5-(5-Fluoro-2-{[(3S)-3-(morpholin-4-ylmethyl)-3,4-dihydroisoquinolin-2(1H)-yl]carbonyl}phenyl)-N-(4-hydroxyphenyl)-1,2-dimethyl-N-(1-methyl-1H-indazol-5-yl)-1H-pyrrole-3-carboxamide hydrochloride] are 5.5 nM and 39.6 nM.
As for `Cc1ccc(N(C(=O)c2cc(-c3cc4c(cc3C(=O)N3Cc5ccccc5C[C@H]3CN3CCOCC3)OCO4)n(C)c2C)c2ccc(O)cc2)cc1F` [Example 13, N-(3-Fluoro-4-methylphenyl)-N-(4-hydroxyphenyl)-1,2-dimethyl-5-(6-{[(3S)-3-(morpholin-4-ylmethyl)-3,4-dihydroisoquinolin-2(1H)-yl]carbonyl}-1,3-benzodioxol-5-yl)-1H-pyrrole-3-carboxamide hydrochloride], the IC50 in test [1] was 4.4 nM; in test [2] (Homo sapiens, RS4-11, 48 h), 19.8 nM.
As for `Cc1c(C(=O)N(c2ccc(O)cc2)c2ccc3c(cnn3C)c2)cc(-c2cc3c(cc2C(=O)N2Cc4ccccc4C[C@H]2CN2CCOCC2)OCO3)n1C` [Example 14, N-(4-Hydroxyphenyl)-1,2-dlmethyl-N-(1-methyl-1H-indazol-5-yl)-5-(6-{[(3S)-3-(morpholil-4-ylmethyl)-3,4-dihydroisoquinolin-2(1H)-yl]carbonyl}-1,3-benzodioxol-5-yl)-1H-pyrrole-3-carboxamide hydrochloride], the half-inhibitory concentration (IC50) in test [1] was 3.7 nM; in test [2], 8.23 nM.
In the same order, the values of `Cc1c(C(=O)N(c2ccccc2)c2ccc(O)cc2)cc(-c2cc3c(cc2C(=O)N2Cc4ccccc4C[C@H]2CN2CCOCC2)OCO3)n1C` [Example 15, N-(4-Hydroxyphenyl)-1,2-dimethyl-5-(6-{[(3S)-3-(morpholin-4-ylmethyl)-3,4-dihydroisoquinoin-2(1H)-yl]carbny}-1,3-benzodioxo-5-yl)-N-pheny-1H-pyrrole-3-carboxamide hydrochloride] are 11.1 nM and 69.4 nM.
Take `Cc1c(C(=O)N(c2ccc(O)cc2)c2cccc(F)c2)cc(-c2cc3c(cc2C(=O)N2Cc4ccccc4C[C@H]2CN2CCOCC2)OCO3)n1C` [Example 16, N-(3-Fluorophenyl)-N-(4-hydroxyphenyl)-1,2-dimethyl-5-(6-{[(3S)-3-(morpholin-4-ylmethyl)-3,4-dihydroisoquinolin-2(1H)-yl]carbonyl}-1,3-benzodioxol-5-yl)-1H-pyrrole-3-carboxamide hydrochloride]: the IC50 in test [1] stood at 12.6 nM; in test [2] (Homo sapiens, RS4-11, 48 h), 22.7 nM.
In the same order, the values of `Cc1c(C(=O)N(c2ccccc2)c2ccc(O)cc2)cc(-c2cc(Cl)ccc2C(=O)N2Cc3ccccc3C[C@H]2CN2CCOCC2)n1C` [Example 17, 5-(5-Chloro-2-{[(3S)-3-(morpholin-4-ylmethyl)-3,4-dihydroisoquinolin-2(1H)-yl]carbonyl}phenyl)-N-(4-hydroxyphenyl)-1,2-dimethyl-N-phenyl-1H-pyrrole-3-carboxamide hydrochloride] are 8 nM and 75.2 nM.
As to `Cc1c(C(=O)N(c2ccccc2)c2ccc(O)cc2)cc(-c2cc3c(cc2C(=O)N2Cc4ccccc4C[C@H]2CCN2CCOCC2)OCO3)n1CCO` [Example 18, 1-(2-Hydroxyethyl)-N-(4-hydroxyphenyl)-2-methyl-5-(6-{[(3S)-3-[2-(morpholin-4-yl)ethyl]-3,4-dihydroisoquinolin-2(1H)-yl]carbonyl}-1,3-benzodioxol-5-yl)-N-phenyl-1H-pyrrole-3-carboxamide hydrochloride], the IC50 in test [1] is 3.9 nM; in test [2] (Homo sapiens, RS4-11, 48 h) it was 27.6 nM.
For the compound `COc1ccc(C(=O)N2Cc3ccccc3C[C@H]2CN2CCOCC2)c(-c2cc(C(=O)N(c3ccccc3)c3ccc(O)cc3)c(C)n2C)c1` [Example 19, N-(4-Hydroxyphenyl)-5-(5-methoxy-2-{[(3S)-3-(morpholin-4-ylmethyl)-3,4-dihydroisoquinolin-2(1H)-yl]carbonyl}phenyl)-1,2-dimethyl-N-phenyl-. H-pyrrole-3-carboxamide hydrochloride], the values for the IC50 in test [1] and in test [2] were 6 nM and 65.5 nM, respectively.
For `COc1ccc(C(=O)N2Cc3ccccc3C[C@H]2C)c(-c2cc(C(=O)N(c3ccncc3)c3ccc(O)cc3)c(C)n2C)c1` [Example 20, N-(4-Hydroxyphenyl)-5-(5-methoxy-2-{[(3R)-3-methyl-3,4-dihydroisoquinolin-2(1H)-yl]carbonyl}phenyl)-1,2-dimethyl-N-(pyridin-4-yl)-1H-pyrrole-3-carboxamide hydrochloride], the IC50 in test [1] came out at 4.9 nM; in test [2] (Homo sapiens, RS4-11, 48 h), 164 nM.
In the same order, the values of `Cc1c(C(=O)N(c2ccc(O)cc2)c2cnn(C)c2)cc(-c2cc3c(cc2C(=O)N2Cc4ccccc4C[C@H]2CN2CCOCC2)OCCO3)n1C` [Example 21, N-(4-Hydroxyphenyl)-1,2-dimethyl-N-(1-methyl-1H-pyrazol-4-yl)-5-(7-{[(3S)-3-(morpholin-4-ylmethyl)-3,4-dihydroisoquinolin-2(1H)-yl]carbonyl}-2,3-dihydro-1,4-benzodioxin-6-yl)-1H-pyrrole-3-carboxamide hydrochloride] are 4.7 nM and 79.9 nM.
With `Cc1c(C(=O)N(c2ccccc2)c2ccc(O)cc2)cc(-c2cc3c(cc2C(=O)N2Cc4ccccc4C[C@H]2CN2CCOCC2)OCCO3)n1C` [Example 22, N-(4-Hydroxyphenyl)-1,2-dimethyl-5-(7-{[(3S)-3-(morpholin-4-ylmethyl)-3,4-dihydroisoquinolin-2(1H)-yl]carbonyl}-2,3-dihydro-1,4-benzodioxin-6-yl)-N-phenyl-1H-pyrrole-3-carboxamide hydrochloride], the IC50 in test [1] amounted to 6.6 nM; in test [2] (Homo sapiens, RS4-11, 48 h) it was 45.7 nM.
In the same order, the values of `Cc1c(C(=O)N(c2ccc(O)cc2)c2cnn(C)c2)cc(-c2cc3c(cc2C(=O)N2Cc4ccccc4C[C@H]2C)OCO3)n1CCO` [Example 23, 1-(2-Hydroxyethyl)-N-(4-hydroxyphenyl)-2-methyl-5-(6-{[(3R)-3-methyl-3,4-dihydroisoquinolin-2(1H)-yl]carbonyl}-1,3-benzodioxol-5-yl)-N-(1-methyl-1H-pyrazol-4-yl)-1H-pyrrole-3-carboxamide] are 3.6 nM and 25.4 nM.
